Like-named read-outs stand apart in the source and are kept apart here.
How the values were obtained:
rats [1] = settings: cited from earlier work
hypertensive patients = settings: intravenous infusion; cited from earlier work
[2] = tested on: person with androgenetic alopecia; assay: Case studies: oral minoxidil in males with androgenetic alopecia (blood pressure, heart rate, hair growth)
rat bone marrow = rat bone marrow micronucleus assay; cited from earlier work
rat hepatocyte = settings: in vitro rat hepatocyte unscheduled DNA synthesis assay; cited from earlier work
rats [3] = settings: cited from earlier work; remark: listed apart in the source
mouse bone marrow = mouse bone marrow micronucleus assay; cited from earlier work
[4] = cited from earlier work; for Duration plasma concentrations above 20 ng/ml: immediate release
patients = settings: cited from earlier work
[5] = cited from earlier work
dogs = settings: short-term administration 0.5 mg to 10 mg/kg/day; cited from earlier work
human lymphocytes = settings: cited from earlier work
male adults with AGA = settings: 5 mg oral at bedtime, cited from earlier work
subjects with hair loss = settings: cited from earlier work
rabbits = settings: cited from earlier work
mice = settings: dietary, cited from earlier work
Salmonella = Salmonella (Ames) test; cited from earlier work
Chinese hamster cells = Chinese hamster cells at long exposure times; cited from earlier work
[6] = oral, dose level 2.5 mg, healthy volunteers
[7] = oral, dose level 5 mg, healthy volunteers
[8] = oral, dose level 10 mg, healthy volunteers

For `Nc1cc(N2CCCCC2)nc(N)[n+]1[O-]` [Minoxidil], the Carcinogenicity (rats [1]; doses 15 times the usual human dosage for 22 months) is given as “No evidence of carcinogenicity”, the Carcinogenicity findings (rats [1]; oral administration, two-year study) is given as “no positive findings” and the “Steady state plasma concentrations associated with significant (>5 beats per minute) changes in heart rate” value (hypertensive patients) is given as “above 20 ng/mL”. For the same compound, the Adverse events ([2]; 0.625 mg four times a day) was “No unwanted hair growth or other adverse events were noticed”, the “Effect on blood pressure” value ([2]; 0.625 mg four times a day) was “did not experience significant reductions in blood pressure” and the Adverse events ([2]; 1.25 mg QID) was “No unwanted hair growth or other adverse events, including any cardiac effects, were noticed”. For the same compound, the Mutagenicity (rat bone marrow) was “not mutagenic”, the Mutagenicity (rat hepatocyte) was “not mutagenic” and the Fetal resorption (rats [3]) was “not seen”. For the same compound, the Teratogenic effects (rats [3]) was “no evidence of teratogenic effects”, the Mutagenicity (mouse bone marrow) was “not mutagenic” and the “Dose dependence of PK and urinary excretion” value ([4]; 2.5 mg, 5 mg, or 10 mg oral, healthy volunteers) was “dose-independent PK”. The “Effect on blood pressure” value ([4]; 2.5 mg, 5 mg, or 10 mg oral, normotensive subjects) was “little effect on blood pressure in normotensive subjects”, the “Duration plasma concentrations above 20 ng/ml” value ([4]; 5 mg dose level) was “around 1 h” and the “Duration plasma concentrations above 20 ng/ml” value ([4]; 10 mg dose level) was “around 2 h”. The Observed half-life ([4]; immediate release formulation, oral) was “around 1 h”, the “AUC(last)” value [4, 6] was 25.3 ng·h/mL and the Cmax [4, 6] was 16.8 ng/mL. For the same compound, the T1/2 [4, 6] was 64.2 min, the Tmax [4, 6] was 34 min and the “AUC(last)” value [4, 7] was 55.1 ng·h/mL. For the same compound, the Cmax [4, 7] was 37.2 ng/mL, the T1/2 [4, 7] was 76.2 min and the Tmax [4, 7] was 23.3 min. The “AUC(last)” value [4, 8] was 112 ng·h/mL, the Cmax [4, 8] was 74.7 ng/mL and the T1/2 [4, 8] was 80.4 min. For the same compound, the Tmax [4, 8] was 25.1 min, the “Temporary decrease in hematocrit, hemoglobin, and erythrocyte count (hemodilution)” value (patients; chronic therapy for severe hypertension, initially) was “approximately 7%” and the “Patients in whom hypertrichosis was hardly or not at all tolerable” value (patients; human, in vivo) was “less than 10%”. The “Plasma concentrations above which hemodynamic effects are typically seen” value (patients; human, in vivo) was greater than 20 ng/mL, the “Patients exhibiting ECG alterations in direction and magnitude of T waves” value (patients; soon after starting therapy) was “approximately 60%” and the “Predominant metabolite in urine” value ([5]; first 12 h, hypertensive patients) was “A glucuronide conjugate”. For the same compound, the Renal clearance ([5]; human, in vivo) was 73.3 mL/min, the “Radioactivity found in feces” value ([5]; hypertensive patients) was 3% and the “Total radioactivity recovered from urine” value ([5]; hypertensive patients) was 97%. For the same compound, the “Time to peak plasma levels” value ([5]; oral) was no more than 1 h, the “Fraction of oral minoxidil metabolized” value ([5]; primarily by conjugation with glucuronic acid) was “About 90%” and the “Radiolabeled minoxidil and metabolites recovered from urine” value ([5]; within 24 h after oral administration, hypertensive patients) was “Over 80%”. For the same compound, the Cardiac lesions (dogs) was “various cardiac lesions have been found”, the Cytogenetic assay result (human lymphocytes) was “negative” and the Subjects reporting edema (male adults with AGA; 24 week follow up, 34 subjects) was 2.9%. For the same compound, the Subjects reporting headache (male adults with AGA; 24 week follow up, 34 subjects) was 20.6%, the Subjects reporting vertigo (male adults with AGA; 24 week follow up, 34 subjects) was 2.9% and the Subjects reporting hypertrichosis (male adults with AGA; 24 weeks, 34 subjects) was 55.9%. For the same compound, the Adverse cardiovascular outcomes (male adults with AGA; 24 weeks) was “No adverse cardiovascular outcomes were observed”, the “Serious adverse events (SAEs) reported” value (subjects with hair loss; topical foam 5% versus topical solution 2% in female pattern hair loss, 322 subjects, NCT01145625) was “Ten serious adverse events (SAEs) were reported” and the “SAEs reported in subjects treated with minoxidil” value (subjects with hair loss; topical foam 5% versus vehicle topical foam, 404 subjects, NCT01226459) was “Six SAEs were reported”. The Fetal resorption (rabbits; 5 times the maximum recommended oral antihypertensive human dose) was “increased fetal resorption”, the Teratogenic effects (rabbits) was “no evidence of teratogenic effects” and the “Incidence of hepatic nodules” value (mice; up to 2 years, 63 mg/kg/day) was “increased incidence of hepatic nodules in males”. The “Incidence of malignant lymphomas” value (mice; up to 2 years, 10, 25, and 63 mg/kg/day) was “increased incidence of malignant lymphomas in females at all dose levels”, the Mutagenicity (Salmonella) was “not mutagenic” and the Cytogenetic assay result (Chinese hamster cells) was “equivocal result”.

Source: US20250332108A1 (Veradermics, Incorporated, priority 2024, published 2025)
